Measurements reported in article PMC12333015, “Profiling the Impact of mGlu7/Elfn1 Protein Interactions on the Pharmacology of mGlu7 Allosteric Modulators” (ACS Chemical Neuroscience, 2025).

Key:
[1] = biological target: T1, mGlu7/Elfn1 (Rattus norvegicus, UniProt P35400); assay: Thallium flux assay, mGlu7/GIRK HEK293 cells cocultured with Elfn1-expressing cells; assay type: cell-based, mouse Elfn1; details: for EC50: L-AP4 pEC50 ± SEM, Elfn1, DMSO vehicle
T1 construct: expressed in transfected cells; host or cells: HEK293A mGlu7/GIRK cells cocultured with HEK293A polyclonal cells stably expressing Elfn1-Myc (pcDNA3)
T1 sequence (P35400 35-915): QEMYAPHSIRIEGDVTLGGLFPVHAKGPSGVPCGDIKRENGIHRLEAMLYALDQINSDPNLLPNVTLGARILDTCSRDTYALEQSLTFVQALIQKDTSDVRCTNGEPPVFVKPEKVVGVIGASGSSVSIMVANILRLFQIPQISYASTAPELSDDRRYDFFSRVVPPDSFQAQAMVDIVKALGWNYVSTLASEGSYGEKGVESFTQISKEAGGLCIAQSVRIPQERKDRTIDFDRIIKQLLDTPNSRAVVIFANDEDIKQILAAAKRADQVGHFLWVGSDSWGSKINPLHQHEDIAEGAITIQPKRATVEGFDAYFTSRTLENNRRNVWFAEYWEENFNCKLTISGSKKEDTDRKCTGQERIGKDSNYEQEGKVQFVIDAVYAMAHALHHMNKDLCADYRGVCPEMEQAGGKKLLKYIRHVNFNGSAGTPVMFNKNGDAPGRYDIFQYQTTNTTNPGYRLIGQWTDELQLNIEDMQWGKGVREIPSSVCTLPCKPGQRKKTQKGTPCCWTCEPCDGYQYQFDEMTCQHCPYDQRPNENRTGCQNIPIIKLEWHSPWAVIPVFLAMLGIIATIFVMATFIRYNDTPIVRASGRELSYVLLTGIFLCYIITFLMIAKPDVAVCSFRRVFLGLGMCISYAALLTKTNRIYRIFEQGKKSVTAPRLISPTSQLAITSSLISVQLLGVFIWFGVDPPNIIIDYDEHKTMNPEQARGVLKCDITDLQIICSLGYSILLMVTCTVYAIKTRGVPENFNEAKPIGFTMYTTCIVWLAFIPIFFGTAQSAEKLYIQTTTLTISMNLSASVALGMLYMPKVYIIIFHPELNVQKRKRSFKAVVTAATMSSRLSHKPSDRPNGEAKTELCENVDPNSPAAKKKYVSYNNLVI
T1 sequence (Q8C8T7 26-828 partner): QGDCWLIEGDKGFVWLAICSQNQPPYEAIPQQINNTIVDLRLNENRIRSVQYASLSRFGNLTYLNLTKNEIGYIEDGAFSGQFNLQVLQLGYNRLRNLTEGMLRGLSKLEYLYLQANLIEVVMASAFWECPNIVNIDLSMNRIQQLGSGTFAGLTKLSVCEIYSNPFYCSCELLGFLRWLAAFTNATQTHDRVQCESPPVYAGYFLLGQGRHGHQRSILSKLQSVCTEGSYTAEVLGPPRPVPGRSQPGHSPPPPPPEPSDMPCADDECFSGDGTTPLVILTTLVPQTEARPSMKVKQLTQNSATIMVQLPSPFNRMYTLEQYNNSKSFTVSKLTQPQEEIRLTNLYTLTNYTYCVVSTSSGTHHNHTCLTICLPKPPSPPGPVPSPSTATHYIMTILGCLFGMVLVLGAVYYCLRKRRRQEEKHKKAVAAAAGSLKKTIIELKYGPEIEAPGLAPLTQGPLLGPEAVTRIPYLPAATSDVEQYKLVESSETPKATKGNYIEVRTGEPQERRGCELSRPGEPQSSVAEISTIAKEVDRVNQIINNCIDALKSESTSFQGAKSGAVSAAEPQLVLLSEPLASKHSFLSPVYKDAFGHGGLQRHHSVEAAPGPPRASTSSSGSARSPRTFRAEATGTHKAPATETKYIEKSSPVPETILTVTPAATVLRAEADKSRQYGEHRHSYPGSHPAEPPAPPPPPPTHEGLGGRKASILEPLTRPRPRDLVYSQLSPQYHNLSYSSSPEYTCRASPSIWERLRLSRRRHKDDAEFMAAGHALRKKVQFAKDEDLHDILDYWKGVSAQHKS
Excerpt: (§1) We began our evaluation of mGlu7 ligands in the presence and absence of Elfn1 by using a coculture system as previously described , with several modifications (Figure ). Cells expressing rat mGlu7 and coexpressing G protein inwardly rectifying potassium (GIRK) channels 1 and 2 were cocultured with cells expressing either an empty pcDNA3 vector control or a plasmid containing Elfn1 in the pcDNA3 backbone. We then evaluated the activity of the orthosteric agonist L-AP4 and measured effects on maximal response and pEC50. All responses were normalized to the maximal effect of L-AP4 in the presence of the pcDNA3 control plasmid.
(§2) 2 Assay design and workflow. (Left panel) Cells expressing rat mGlu7/GIRK (pink) were cocultured with pcDNA3 (blue) or Elfn1 (purple). […] (Right panel) The effect on the concentration–response curve in the presence (purple) or absence (blue) of Elfn1 can be seen by a change in efficacy, potency, and/or basal response.
HEK293A polyclonal cells stably expressing either Elfn1 or empty vector were passaged in media (Dulbecco’s modified Eagle medium (DMEM), supplemented with 10% fetal bovine serum (FBS), 20 mM N-(2-hydroxyethyl)-piperazine-N′-ethanesulfonic acid (HEPES), 1 mM Na pyruvate, 2 mM Glutamax, 0.1 mM nonessential amino acids, 1× antibiotic/antimycotic) under G418 (700 μg/mL) selection to maintain expression.
(§3) HEK293A cells stably expressing mouse Elfn1 or pcDNA3 were maintained in growth medium containing 90% Dulbecco’s Modified Eagle Media (DMEM), 10% fetal bovine serum (FBS), 100 units/mL penicillin/streptomycin, 20 mM HEPES, 1 mM sodium pyruvate, 2 mM L-glutamine, 1× nonessential amino acids, and 700 μg/mL G418 sulfate. HEK mGlu7/GIRK cells were maintained in a growth medium with 90% DMEM/F12, 10% dialyzed FBS, 100 units/mL penicillin/streptomycin, 20 mM HEPES, 1 mM sodium pyruvate, 2 mM L-glutamine, 1× nonessential amino acids, 700 μg/mL G418 sulfate, and 600 ng/mL puromycin. All cell culture reagents were purchased from Invitrogen (Carlsbad, CA).
(§4) Thallium flux assays were performed as previously described. A mixture of HEK293A mGlu7/GIRK cells and pcDNA3 or Elfn1-expressing HEK293A cells (5000/15,000 cells/20 μL/well for agonist and PAM experiments; 7500/15,000 cells/20 μL/well for NAM experiments) was seeded in 384-well, amine-coated assay plates (Greiner Bio-One, Monroe, NC). Cells were incubated overnight in a humidified 5% CO2 cell culture incubator at 37 °C. […] Following a 1 h incubation at room temperature, the dye loading solution was replaced with 20 μL/well assay buffer and the plates were loaded into a Hamamatsu FDSS 7000 (Bridgewater, NJ). Data were acquired at 1 Hz (excitation 470 ± 20 nm, emission 540 ± 30 nm) for 10 s, followed by the addition of 20 μL/well of 10 μM NAM/PAM/DMSO, followed by an additional 4 min of data collection. […] Thallium flux data were analyzed by first dividing each point in each wave by the first point in that wave and then subtracting the average of the vehicle control response. The slopes of these vehicle control-subtracted waves were calculated over ten data points beginning 2 s after thallium stimulus addition and fit to a three-parameter logistic equation in GraphPad Prism (La Jolla, CA). In most cases, the final data were normalized to the response of the mGlu7/pcDNA3 with vehicle and 5 mM L-AP4 unless otherwise noted. Potency (pEC50) and maximum responses (E max) induced by compounds were determined using a four-parameter logistical equation in Prism.

[2] = biological target: T2, rat mGlu7 (Rattus norvegicus, UniProt P35400); assay: Thallium flux assay, mGlu7/GIRK HEK293 cells cocultured with pcDNA3 vector control cells; assay type: cell-based; details: L-AP4 pEC50 ± SEM, pcDNA, DMSO vehicle
T2 construct: expressed in transfected cells; host or cells: HEK293A cells stably expressing mGlu7 and GIRK1/2
T2 sequence (P35400 35-915): as the sequence (P35400 35-915) above
Excerpt: as §1, §2, §3
as §4, with “NJ).” for “NJ). Data were acquired at 1 Hz (excitation 470 ± 20 nm, emission 540 ± 30 nm) for 10 s, followed by the addition of 20 μL/well of 10 μM NAM/PAM/DMSO, followed by an additional 4 min of data collection.”, “Prism. Basal activity was calculated with data points at the three lowest test concentrations. Maximum activity was calculated with data points at two highest concentrations. All experiments were replicated at least three times in duplicate or triplicate.” for “Prism.”

[3] = agonist alone (DMSO row of Table 2)
[4] = agonist alone (DMSO row of Table S1)

`N[C@@H](CCP(=O)(O)O)C(=O)O` [L-AP4, L-2-amino-4-phosphonobutyric acid, reference compound] was tested, and the EC50 [1, 3] was 324 µM, the EC50 [1, 4] was 200 µM and the “maximal response to L-AP4 with Elfn1 versus pcDNA3” value ([1]; eight experiments, p < 0.001) was “significantly reduced”. For the same compound, the “pEC50 of L-AP4 with Elfn1 versus pcDNA3” value ([1]; eight experiments, p < 0.01) was “significantly reduced”, the EC50 [2, 3] was 195 µM and the EC50 [2, 4] was 240 µM.
